Laboratory results as given in patent US20250064756A1, “NANOCRYSTALLINE TIO2 AND ZNO ORGANOSELENIUM SCAFFOLDS POSSESING DISELENIDE (SE-SE) FUNCTIONALITY FOR BIOMEDICAL TECHNOLOGY” (KING FAISAL UNIVERSITY, priority 2023, published 2025).
Values joined by “and” are separate entries in the source; they are usually repeats but may differ in a detail not shown here. Equal values may be shown once.

Key:
Assay in all cases: Antimicrobial activity, agar diffusion assay
Type in all cases: cell-based
C. albicans = settings: for A %: Col. = 100
Description: (§1) All reagents and solvents used in these studies were purchased from Sigma and used without purification. Melting points (MP) were measured on the Gallenkamp apparatus in degrees centigrade. The IR spectra (KBr, λmax·cm^−1) were recorded on a Mattson spectrophotometer (5000 FTIR) at King Faisal University. The ^1H & ^13C NMR spectra were measured using Varian Spectrophotometer (400 MHz), employing DMSO-d6 as the solvent and TMS internal standard at Mansoura University. The chemical shifts (δ, ppm) were recorded regarding the solvent residual peaks. GC-MS-QP-100 EX Shimadzu apparatus was used for mass measurements at Cairo University. All biological tests were carried out at the Faculty of Pharmacy, Mansoura University. All cell lines and microorganisms were purchased from the VACSERA Company (ATCC), Cairo, Egypt. DPPH and ABTS probes were obtained from Sigma.
(§2) In General, the diaryl diselenide B manifested promising antimicrobial activity against E. coli (A %=83%), S. aureus (A %=86%), and C. Albicans (A %=88%).

E. coli (−ve) = settings: for A %: Cip. = 100
Description: as §1, §2

S. aureus (+ve) = settings: for A %: Cip. = 100
Description: as §1, §2

B. subtilis (+ve) = settings: for A %: Cip. = 100
Description: as §1, §2

P. aeruginosa (−ve) = settings: for A %: Cip. = 100
Description: as §1, §2

A. flavus = test system: A. flavus
Description: as §1, §2

Row | Compound | IZD (agar diffusion assay diameter) (C. albicans) [mm] | A % (C. albicans) [%] | IZD (agar diffusion assay diameter) (E. coli (−ve)) [mm] | A % (E. coli (−ve)) | IZD (agar diffusion assay diameter) (S. aureus (+ve)) [mm] | A % (S. aureus (+ve)) [%] | IZD (agar diffusion assay diameter) (B. subtilis (+ve)) [mm] | A % (B. subtilis (+ve)) [%] | IZD (agar diffusion assay diameter) (P. aeruginosa (−ve)) [mm] | A % (P. aeruginosa (−ve)) [%] | IZD (agar diffusion assay diameter) (A. flavus) [mm] | A % (A. flavus; Col. = 100) [%]
1 | COC(=O)c1cc([Se][Se]c2ccc(N)c(C(=O)OC)c2)ccc1N [Compound B, dimethyl 5,5-diselanediylbis(2-aminobenzoate)] | 21 | 88 | 19 | 83% | 18 | 86 |  |  |  |  |  | 
2 | O=C(O)c1cn(C2CC2)c2cc(N3CCNCC3)c(F)cc2c1=O [Cip., reference compound] |  |  | 26 | 100% | 24 | 100 | 23 | 100 | 23 | 100 |  | 
3 | Nc1ccc([Se][Se]c2ccc(N)cc2)cc1 [Compound A] | 12 | 44 | 14 | 54% and 62% and 65% | 17 | 71 | 15 | 65 | 11 | 48 | 8 | 32
